These results are taken from ChEMBL document CHEMBL2401653, “Synthesis, structure-property relationships and pharmacokinetic evaluation of ethyl 6-aminonicotinate sulfonylureas as antagonists of the P2Y₁₂ receptor” (Eur J Med Chem, 2013).

A short description of series [1]: Stability of the compound in MeCN assessed as compound remaining at room temperature. Type of series: physicochemical.
Series [2] deals with T1, P2Y purinoceptor 12 (Homo sapiens, UniProt Q9H244).
Description: Displacement of [125I]-AZ11931285 from P2Y12 receptor (unknown origin) after 1 hr by scintillation counting analysis
Series [3] addresses T1, P2Y purinoceptor 12. The source holds these as a separate data set.
The nature of series [4]: 1-octanol-phosphate buffer distribution coefficient, log D of the compound at pH 7.4 after 2 days by shake flask method. Type of series: physicochemical.
Series [5] has as its system Liver microsomes. The experiment in a line: Intrinsic clearance in rat liver microsomes at 1 umol/L by LC/MS analysis in presence of NADPH. Type of series: ADME, Microsome. The conditions noted are these: 1 µM.
For series [6], the system named is Liver microsomes. The experiment in a line: Intrinsic clearance in human liver microsomes at 1 umol/L by LC/MS analysis in presence of NADPH. The series is classed as ADME, Microsome. The conditions noted are these: 1 µM.
A short description of series [7]: Apparent Permeability across apical to basolateral side in human Caco2 cells at 1 to 10 uM measured at 30 to 90 mins by LC/MS analysis. The series is classed as ADME, cell-based. The conditions noted are these: Caco-2. In general terms: Caco-2 cells form a polarised layer with tight junctions and transporters.
Series [8] can be described thus: Stability of the compound in MeCN at room temperature after 21 days by LC/MS analysis. The series is classed as physicochemical. The conditions noted are these: 504 h.
A short description of series [9]: Stability of the compound in EtOH at room temperature after 21 days by LC/MS analysis. The conditions noted are these: 504 h. Type of series: physicochemical.
In series [10] the test system is Liver microsomes. Description: Metabolic stability in human liver microsomes at 1 umol/L by LC/MS analysis in absence of NADPH. Type of series: ADME, Microsome. The conditions noted are these: 1 µM. A general note: Microsomes from liver hold many membrane-bound enzymes, among them those of drug oxidation.
Series [11] can be described thus: Aqueous solubility of the compound. The conditions noted are these: buffer. Type of series: physicochemical.
Series [12] concerns Liver microsomes. The experiment in a line: Metabolic stability in rat liver microsomes at 1 umol/L by LC/MS analysis in absence of NADPH. The conditions noted are these: 1 µM. The series is classed as ADME, Microsome.
Series [13] can be described thus: physchem. The conditions noted are these: HBSS buffer, pH 6.8.
Description: Kinetic solubility in HBSS buffer at pH 6.8 after 16 hrs by LC-UV/MS analysis
A short description of series [14]: physchem. The conditions noted are these: HBSS buffer, pH 7.4.
Description: Kinetic solubility in HBSS buffer at pH 7.4 after 16 hrs by LC-UV/MS analysis
Series [15] in a line: Fraction unbound in human plasma. The series is classed as ADME, cell-free.
The test system of the next series is Plasma. Description: Metabolic stability in rat plasma by HRMS analysis. Type of series: ADME, cell-free.
Series [16] is described as follows: Half life in iv dosed rat. Type of series: ADME, organism-based. The conditions noted are these: in vivo.
A short description of series [17]: Half life in po dosed rat. Type of series: ADME, organism-based. The conditions noted are these: in vivo.
Series [18] can be described thus: Oral bioavailability in rat. Type of series: ADME, organism-based. The conditions noted are these: in vivo.
The nature of series [19]: Clearance in iv dosed rat. Type of series: ADME, organism-based. The conditions noted are these: in vivo.

≈ marks a conversion by molar mass, not a printed value. A value given as a limit tells only on which side of the number the result lay.

As a reminder, the IC50 is the point on the concentration scale where inhibition reaches its midpoint. The logD is the decadic logarithm of the distribution of all forms, ionised or not, between an organic phase and buffer at a given pH. Low readings indicate lower lipophilicity, high ones higher lipophilicity. Usually Papp A→B stands for how fast a substance crosses the layer from the apical side. By solubility is commonly meant how much of the substance goes into solution per volume. A higher solubility goes with a readily soluble substance. A word on the kinetic solubility: it is solubility judged after dilution from a stock solution rather than from solid. Broadly, the fraction unbound is free concentration divided by total concentration. Read a high fraction unbound as weak binding. Usually half-life stands for how long it takes for the measured level to halve. Low readings indicate rapid decline, high ones slow decline. Broadly, the bioavailability is the share of a dose that reaches the circulation, judged against a reference dose that is usually intravenous. Low readings indicate poor availability, high ones good availability. The term clearance denotes a measure of how efficiently the substance is removed, as volume per time. A high value points to a high capacity for elimination.

T1 sequence (Q9H244 whole entry): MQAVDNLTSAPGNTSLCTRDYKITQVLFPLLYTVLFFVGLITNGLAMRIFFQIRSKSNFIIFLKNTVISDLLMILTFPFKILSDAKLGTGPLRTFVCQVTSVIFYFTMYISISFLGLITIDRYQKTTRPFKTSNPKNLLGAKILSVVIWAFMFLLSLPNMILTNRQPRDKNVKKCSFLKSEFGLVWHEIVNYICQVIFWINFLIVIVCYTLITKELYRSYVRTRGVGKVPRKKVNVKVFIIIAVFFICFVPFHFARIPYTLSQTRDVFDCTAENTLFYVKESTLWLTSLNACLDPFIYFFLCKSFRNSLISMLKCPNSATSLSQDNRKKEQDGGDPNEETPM

For `CCOC(=O)c1cc(C#N)c(N2CCC(NC(=O)NS(=O)(=O)c3ccc(Cl)s3)CC2)nc1C`, in series [1], the Stability result is “Stable”. Further, the IC50 against P2Y purinoceptor 12 [2] was 0.027 µM; against P2Y purinoceptor 12 [3], 0.057 µM. The compound also came in with a pH-dependent lipophilicity (logD) at 48 h in [4] of 1.6. In the series on Liver microsomes [5], the Intrinsic clearance is above 104 µL/min/mg. For the same compound, the Intrinsic clearance (CLint) in the series with Liver microsomes [6] was above 70 µL/min/mg. Further, the Papp A→B at up to 10 µM in series [7] worked out at 69 nm/s.
Turning to `CCOC(=O)c1cnc(N2CCC(NC(=O)NS(=O)(=O)c3ccccc3)CC2)c(Cl)c1`, the values for the Stability result in series [1], in series [8] and in series [9] were “Stable”, “Stable” and “Unstable”, respectively. Further, the 50% inhibitory concentration (IC50) at P2Y purinoceptor 12 [2] was determined as 4.8 µM; at P2Y purinoceptor 12 [3] it was 3.2 µM. In addition, the logD at 48 h in [4] stood at 1.5.
Turning to `CCOC(=O)c1cc(C#N)c(N2CCC(NC(=O)NS(=O)(=O)c3ccc(Cl)cc3)CC2)nc1C`, the Stability entry in series [1] is “Stable”. Moreover, the IC50 was determined as 0.19 µM at P2Y purinoceptor 12 [2] and 0.26 µM at P2Y purinoceptor 12 [3]. The compound also came in with a logD at 48 h in [4] of 2.1. Also, in the series with Liver microsomes [5], the Intrinsic clearance was above 104 µL/min/mg. Moreover, the Intrinsic clearance (CLint) with Liver microsomes [6] was above 70 µL/min/mg. In series [7], the Papp A→B at up to 10 µM was 190 nm/s.
`CCOC(=O)c1cc(C#N)c(N2CCN(C(=O)NS(=O)(=O)c3ccc(Cl)s3)CC2)nc1C`: the Stability entry (in series [1]; in the series on Liver microsomes [10]; with Liver microsomes [12]) was “Stable” each time. The 50% inhibitory concentration (IC50) at P2Y purinoceptor 12 [2] is 0.042 µM; at P2Y purinoceptor 12 [3], 0.034 µM. For the same compound, the logD at 48 h in series [4] is 1. Also, in the series with Liver microsomes [5], the Intrinsic clearance is above 104 µL/min/mg. In addition, the Intrinsic clearance (CLint) in the series with Liver microsomes [6] was above 70 µL/min/mg. Further, in [7], the Papp A→B at up to 10 µM was 0.58 nm/s. The solubility in series [11] came to 90 µM (≈ 44.8 µg/mL).
With `CCOC(=O)c1cc(C#N)c(N2CCN(C(=O)NS(=O)(=O)c3ccccc3)CC2)nc1C`, the Stability result (in [1]; with Liver microsomes [10]; with Liver microsomes [12]) was “Stable” throughout. For the same compound, the half-inhibitory concentration (IC50) was 0.14 µM against P2Y purinoceptor 12 [2] and 0.13 µM at P2Y purinoceptor 12 [3]. For the same compound, in series [7], the Papp A→B at up to 10 µM is 3 nm/s.
With `CCOC(=O)c1cc(C#N)c(N2CCN(C(=O)NS(=O)(=O)Cc3ccccc3)CC2)nc1C`, in [1], the Stability entry was “Stable”. The half-inhibitory concentration (IC50) is 0.033 µM against P2Y purinoceptor 12 [2] and 0.054 µM on P2Y purinoceptor 12 [3]. Moreover, the logD at 48 h in [4] was 0.9. For the same compound, the Intrinsic clearance with Liver microsomes [5] is above 104 µL/min/mg. Besides, in the series on Liver microsomes [6], the Intrinsic clearance (CLint) is below 13 µL/min/mg. Moreover, the Papp A→B at up to 10 µM in [7] was determined as 3.7 nm/s.
For the compound `CCOC(=O)c1cnc(N2CCN(C(=O)NS(=O)(=O)c3ccccc3)CC2)c(Cl)c1`, the Stability result (in series [1]; in the series with Liver microsomes [10]; in the series on Liver microsomes [12]) was “Stable” each time. Also, the values for the IC50 against P2Y purinoceptor 12 [2] and at P2Y purinoceptor 12 [3] were 0.18 µM and 0.22 µM, respectively. Further, in the series on Liver microsomes [5], the Intrinsic clearance is above 104 µL/min/mg. In “physchem [13]”, the kinetic solubility at 16 h worked out at 100 µM (≈ 45.3 µg/mL). Moreover, the Intrinsic clearance (CLint) with Liver microsomes [6] is above 70 µL/min/mg. For the same compound, the Papp A→B at up to 10 µM in series [7] worked out at 2.8 nm/s.
Take `CCOC(=O)c1cnc(N2CCN(C(=O)NS(=O)(=O)c3ccccc3C)CC2)c(Cl)c1`: the Stability entry in series [1] is on record as “Stable”. For the same compound, the IC50 on P2Y purinoceptor 12 [2] is 0.15 µM; against P2Y purinoceptor 12 [3] it was 0.26 µM. For the same compound, in the series “physchem [14]”, the solubility (kinetic) at 16 h is 210 µM (≈ 98.1 µg/mL). For the same compound, in the series with Liver microsomes [5], the Intrinsic clearance is above 104 µL/min/mg. In the series with Liver microsomes [6], the Intrinsic clearance (CLint) is above 70 µL/min/mg.
Consider `CCOC(=O)c1cc(C#N)c(N2CCN(C(=O)NS(=O)(=O)c3ccc(Cl)s3)C(CCC(=O)O)C2)nc1C(F)(F)F` (racemic), for which the figures for the Stability entry (in series [1]; in the series with Plasma) were “Stable” and “Unstable”, respectively. Also, the IC50 was determined as 0.095 µM at P2Y purinoceptor 12 [2] and 0.11 µM against P2Y purinoceptor 12 [3]. The compound also showed a fraction unbound in [15] below 0.015. The half-life was 0.62 h in series [16] and 4 h in series [17]. The compound also registered a bioavailability in series [18] of 0.83%. The Intrinsic clearance in the series on Liver microsomes [5] was above 104 µL/min/mg. In series [19], this compound had a clearance of 2.76 L/h/kg. Further, the Intrinsic clearance (CLint) in the series on Liver microsomes [6] was below 13 µL/min/mg. Also, the Papp A→B at up to 10 µM in series [7] amounted to 1.9 nm/s.
For `CCOC(=O)c1cc(C#N)c(N2CCN(C(=O)NS(=O)(=O)c3ccc(Cl)s3)CC2C)nc1C` (racemic), the Stability entry in series [1] is recorded as “Stable”. For the same compound, the IC50 at P2Y purinoceptor 12 [2] amounted to 0.064 µM; at P2Y purinoceptor 12 [3] it was 0.037 µM. In series [4], this compound gave a pH-dependent lipophilicity (logD) at 48 h of 1.6. Besides, the Intrinsic clearance in the series with Liver microsomes [5] was above 104 µL/min/mg. Besides, in the series with Liver microsomes [6], the Intrinsic clearance (CLint) was above 70 µL/min/mg. Also, the apical-to-basolateral permeability (Papp A→B) at up to 10 µM in series [7] worked out at 3.1 nm/s.
Regarding `CCOC(=O)c1cnc(N2CCN(C(=O)Nc3ccccc3)CC2CCC(=O)O)c(Cl)c1` (racemic), the Stability result in series [1] is given as “Stable”. In addition, the IC50 was 0.68 µM at P2Y purinoceptor 12 [2] and 2.2 µM on P2Y purinoceptor 12 [3]. This compound gave a kinetic solubility at 16 h in the series “physchem [13]” of 96 µM (≈ 44.2 µg/mL).
